Columns and labels:
[1] = Population PK/PD model parameter estimates (NLME, Monolix) from the CHDM201X2101 dataset; parameters: species or system human; details: method=FIXED
Source text: For model building the PK/PD dataset of CHDM201X2101 were used and an NLME estimation (Monolix 4.3.2) performed. The model structure and the parameter estimates are provided below. This provided inputs for R/shiny. The m/xR package were used for simulation of longitudinal data from the MLXTRAN model.

R/R AML subjects = assay: Clinical study CHDM201X2101, single agent HDM201; format: in vivo, human
Description: HDM201 is a novel investigational agent with promising single-agent activity in AML patients. Study CHDM201X2101 investigated several dose regimens of single agent HDM201 in R/R AML subjects. CR/CRi rate of 24% was reported in subjects with R/R AML who received oral HDM201 at a dose of 45 mg from D1 to D7 every 4 weeks (Q4W) (Regimen 2C), which was the dose assessed as recommended dose for expansion (RDE).
The starting dose and regimen selection for HDM201 in dose escalation is based on the previous Phase I dose escalation and expansion study of HDM201 as a single-agent in subjects with R/R AML ([HDM201X2101]). In this Phase I study, HDM201 was investigated in subjects with solid tumors and hematological malignancies. A total of 27 subjects with hematological malignancies (26 AML and one acute lymphoblastic leukemia (ALL)) have been enrolled across various regimens. […] According to HDM201X2101, Regimen 2C was determined to be the recommended Phase 2 dose (RP2D) for further development of HDM201 as a single-agent.
With this regimen, the RD has been determined as 45 mg HDM201 in hematological tumors in the CHDM201X2101 study. […] Proceedings of the American Association for Cancer Research Annual Meeting 2017; 2017 Apr. 1-5; Washington, DC. Philadelphia (PA): AACR; Cancer Res 2017; 77(13 Suppl):Abstract nr CT154. doi:10.1158/1538-7445.AM2017-CT154).

p53 = details: preclinical cell and in vivo models; cited from earlier work
[2] = test system: solid and hematological tumors; details: versus original day 1 to day 7 regimen of a 28-day cycle; cited from earlier work
solid tumor subjects = assay: Clinical study CMBG453X2101, MBG453 single agent; format: in vivo, human; details: any dose up to 1200 mg Q2W or Q4W
Description: (§1) The MBG453 single agent RD has been determined as 800 mg Q4W in solid tumor subjects primarily based on PK and PKPD modeling of target (TIM-3) occupancy. MBG453 at the dose level of 800 mg Q4W was predicted to give sustained target occupancy of 90% in tumor in >90% of subjects. […] MBG453 single agent is also being evaluated in AML/MDS subjects in the CPDR001X2105 study with Q4W and Q2W regimens.

AML/MDS subjects = assay: Clinical study CPDR001X2105, MBG453 single agent; format: in vivo, human; details: 400 mg Q2W and 800 mg Q4W
Description: as §1
The RD in AML/MDS has not yet been determined, however it is not expected to be different from solid tumors, based on preliminary PK and safety data.

[3] = R/R AML subjects, single agent HDM201
[4] = subjects treated at RDE (Regimen 2C: 45 mg D1 to D7 Q4W)

| Compound | pop_Cl [1] | pop_V [1] | pop_ka [1] | most common grade 3/4 AE reported as suspected to study treatment (R/R AML subjects; 27 subjects with hematological malignancies across various regimens) | CR/CRi rate (R/R AML subjects; R/R AML subjects, oral 45 mg D1 to D7 Q4W (Regimen 2C)) [%] | duration of responses (R/R AML subjects; [3]) | time at which response was seen (R/R AML subjects; [3]) | gastro-intestinal AEs, grade (R/R AML subjects; [4]) | tumor lysis syndrome (TLS) Grade 3 or 4 (R/R AML subjects; [4]) | effect on p53 function (p53) | anti-tumor activity when administration is shortened to 5 consecutive days [2] | safety signal (solid tumor subjects) | tolerability (AML/MDS subjects) |
| --- | --- | --- | --- | --- | --- | --- | --- | --- | --- | --- | --- | --- | --- |
| COc1ncc(-c2nc3c(n2C(C)C)[C@H](c2ccc(Cl)cc2)N(c2cc(Cl)cn(C)c2=O)C3=O)c(OC)n1 [HDM201, (S)-5-(5-Chloro-1-methyl-2-oxo-1,2-dihydro-pyridin-3-yl)-6-(4-chloro-phenyl)-2-(2,4-dimethoxy-pyrimidin-5-yl)-1-isopropyl-5,6-dihydro-1H-pyrrolo[3,4-d]imidazol-4-one] | pop_Cl = 6.18 [method=FIXED], | pop_V = 119 [method=FIXED], | pop_ka = 0.489 [method=FIXED], | thrombocytopenia, neutropenia, anemia and Tumor Lysis Syndrome (TLS) | 24 | up to 152 days | within the first two cycles | only low grade | about 10% | restore p53 function | relevant anti-tumor activity | – | – |
| MBG453: TIM-3 inhibitor MBG453 (Novartis), given by i.v. infusion | – | – | – | – | – | – | – | – | – | – | – | No significant safety signal | well tolerated |

— US20250041296A1, “NOVEL DOSING REGIMENS FOR MDM2 INHIBITORS” (NOVARTIS AG, priority 2018, published 2025)
